From PMC10062662, “Quantitative determination of lurbinectedin, its unbound fraction and its metabolites in human plasma utilizing ultra-performance LC–MS/MS” (PLOS ONE, 2023)
Like-named read-outs stand apart in the source and are kept apart here.

Experiments:
[1] = Non-specific binding in the absence of plasma proteins (RED method development); assay type: physicochemical; conditions: RED devices
Text: To counteract the NSB, Sigmacote®-treated pipette tips were used.

[2] = Stability in human K3-EDTA plasma under different test conditions; assay type: in vitro ADME
Experimental: Likewise, a wide range of long-term stability tests reflecting the sort of real-world storage issues that can occur in hospital-based clinical studies (e.g., short-term storage at -20°C before transfer to -80°C, availability of -60°C but not -80°C), was evaluated to ensure plasma samples are analyzed before degradation can occur. Therefore, the following plasma stability tests were performed: room temperature, freeze thaw (one cycle consisted of 2 hours at room temperature followed by freezing for at least 12 hours at -80°C ± 10°C) and long-term (at -20°C ± 5°C, -60°C ± 10°C and -80°C ± 10°C). For each stability test, two concentrations (LQC and HQC) and six replicates per level were analyzed. For acceptance criteria, the precision (%CV) was ≤15% and the bias when compared with the nominal concentration was ±15%. […]

plasma protein = test: Plasma protein binding by rapid equilibrium dialysis (RED) in K3-EDTA plasma from donors; assay type: in vitro ADME, human; conditions: for percent bound: 100 ng/mL, RED 8 hours 37°C
Text: (§1) RED was considered the best alternative over other methods (e.g., ultrafiltration) to separate lurbinectedin unbound fraction (fu), due to high non-specific binding (NSB) of lurbinectedin leading to adsorption. The RED device consists of a cylinder of dialysis membrane with an 8-kDa molecular weight cut-off held in place by a polytetrafluoroethylene support; the dialysis membrane tube is closed at one end. The RED devices are disposable and used in a reusable polytetrafluoroethylene support plate (holds a maximum of 48 devices). The design of the plate and device allows for PBS to be added in such a way that it can circulate freely around the cylinder of dialysis membrane. In use, spiked plasma (400 μL) is added to the dialysis membrane cylinder part of the RED device, and PBS (600 μL) is added to the other side. The plate, device and volumes used result in a consistent fluid level across both sides of the membrane, preventing mass movement of fluid across the membrane due to hydrostatic pressure.
(§2) Each measurement was performed using three RED devices; the devices were placed in the plate and spiked plasma and PBS were added. The plate was then mixed on an incubating microplate shaker at 100 rpm and 37°C for 8 hours.
(§3) Both the plasma (diluted 1 in 20 with plasma:PBS 1:1, v:v) and PBS (diluted with plasma 1:1, v:v) were assayed in triplicate using the extraction and UPLC-MS/MS method described above. Transfer of the PBS from the incubation plate into an equivalent volume of plasma prior to assay was performed using pipette tips that had been pre-treated with Sigmacote®.
(§4) In vitro PPB experiments to determine lurbinectedin fu were conducted with RED in K3-EDTA plasma from donors. Fresh plasma (not previously frozen), previously frozen plasma (fresh plasma subjected to four cycles of freeze [at -80°C ±10°C for ≥12 hours] then thawed [at room temperature for 2 hours]) and diluted fresh plasma (not previously frozen, diluted 1:1 with PBS prior to incubation) were spiked to 100 ng/mL with lurbinectedin and then equilibrated with PBS in RED devices for 8 hours at 37°C and assayed.
(§5) In addition, the stability of lurbinectedin PPB in fresh plasma following storage at -80°C ±10°C was evaluated; aliquots of fresh plasma samples (not previously frozen) from three donors were spiked with 500 ng/mL of lurbinectedin. The samples were stored for at least 21, 30, 62 and 91 days prior to analysis; the day 0 aliquots were not frozen before analysis. The spiked aliquots from the three donors were equilibrated with PBS in RED devices in triplicate. The samples generated in the RED devices were analyzed in triplicate.

[3] = as above; assay type: in vitro ADME, human; conditions: human; for fraction unbound at 8 h, 100 ng/mL: RED 8 hours 37°C; for fraction unbound at 8 h, 100 ng/mL / fraction unbound at 8 h, 500 ng/mL: read-out: mean percent unbound
Text: as §1, §2, §3, §4, §5

[4] = Lurbinectedin concentration in treated patient plasma sample (UPLC-MS/MS); assay type: in vivo, human; conditions: single treated patient plasma sample of Fig 2
Experimental: The sample extraction was performed by adding 100 μL of the CS, QC or test sample, 50 μL of aqueous IS solution and 50 μL of 1 M ammonium hydroxide to a 300-μL 96-well microtiter plate. This was then mixed and transferred to a 200-mg Isolute SLE+ plate. After 5 minutes of equilibrium, the samples were then eluted from the SLE plate with 1 mL of MTBE into glass inserts and dried under nitrogen. The samples were then reconstituted with 40 μL of acetonitrile:water (1:1, v:v) with 0.1% of formic acid prior to analysis.
The ultra-performance liquid chromatography (UPLC) system was coupled to a triple quadrupole mass spectrometer. The UPLC system was a Acquity system (Waters, Milford, MA, USA) and composed of a binary pump, column oven and cooled auto sampler. The mass spectrometer was a TQD with an electrospray ionization source from Waters.
The analytical column was a BEH C18 (1.7 μm, 50 × 2.1 mm) and was used in conjunction with a pre-column frit (0.2 μm, 2.1 mm) from Waters. The chromatographic separation was performed at 50°C with a flow rate of 0.4 mL/minute utilizing a linear gradient of water (A) and acetonitrile (B), both with 0.1% ammonium hydroxide: 10% to 100% B from 0.00 to 1.00 minute; isocratic at 100% B for 1.50 minute, then returning to initial conditions from 2.50 to 2.51 minutes with a total run time of 3.5 minutes. The samples were kept at 10°C until injection (10 μL). […]

[5] = 4 freeze-thaw cycles, nom. conc. 0.3 ng/mL
[6] = 4 freeze-thaw cycles, nom. conc. 40 ng/mL
[7] = 37°C, 8 hours, nom. conc. 0.3 ng/mL
[8] = 37°C, 8 hours, nom. conc. 40 ng/mL
[9] = -20°C ±5°C, 23 days, nom. conc. 0.3 ng/mL
[10] = -20°C ±5°C, 23 days, nom. conc. 40 ng/mL
[11] = -60°C ±10°C, 245 days, nom. conc. 0.3 ng/mL
[12] = -60°C ±10°C, 245 days, nom. conc. 40 ng/mL
[13] = -80°C ±10°C, 853 days, nom. conc. 0.3 ng/mL
[14] = -80°C ±10°C, 853 days, nom. conc. 40 ng/mL
[15] = Ambient, 16.5 hours, nom. conc. 0.3 ng/mL
[16] = Ambient, 16.5 hours, nom. conc. 40 ng/mL

## COc1ccc2[nH]c3c(c2c1)CCN[C@]31CS[C@@H]2c3c(OC(C)=O)c(C)c4c(c3[C@H](COC1=O)N1[C@@H]2[C@H]2c3c(cc(C)c(OC)c3O)C[C@@H]([C@@H]1O)N2C)OCO4 [Lurbinectedin]
[1]
  non-specific binding (NSB): very high levels of NSB
[2]; [5]
  Bias: -4%
  Measured conc.: 0.289 ng/mL
[2]; [6]
  Bias: -5%
  Measured conc.: 38.0 ng/mL
[2]; [7]
  Bias: -2%
  Measured conc.: 0.293 ng/mL
[2]; [8]
  Bias: 1%
  Measured conc.: 40.2 ng/mL
[2]; [9]
  Bias: -10%
  Measured conc.: 0.271 ng/mL
[2]; [10]
  Bias: -9%
  Measured conc.: 36.2 ng/mL
[2]; [11]
  Bias: -5%
  Measured conc.: 0.285 ng/mL
[2]; [12]
  Bias: -10%
  Measured conc.: 36.1 ng/mL
[2]; [13]
  Bias: -10%
  Measured conc.: 0.269 ng/mL
[2]; [14]
  Bias: -9%
  Measured conc.: 36.3 ng/mL
[2]; [15]
  Bias: -8%
  Measured conc.: 0.276 ng/mL
[2]; [16]
  Bias: 3%
  Measured conc.: 41.0 ng/mL
Plasma protein; diluted fresh plasma (1:1 with PBS)
  percent bound: 99.3%
Plasma protein; fresh plasma (not previously frozen)
  percent bound: 99.6%
Plasma protein; human, K3-EDTA plasma (fresh, from three donors), following storage at -80°C ±10°C for ≥91 days, read-out: PPB
  fraction unbound at 8 h, 500 ng/mL: < 0.01
Plasma protein; previously frozen plasma (four freeze-thaw cycles)
  percent bound: 99.6%
Plasma protein; storage at -80°C ±10°C, three donors
  stability of PPB in fresh plasma following storage: ≥ 91 days
[3]; fresh K3-EDTA plasma diluted 1:1 with PBS, diluted fresh plasma (1:1 with PBS)
  fraction unbound at 8 h, 100 ng/mL: 0.00668
[3]; fresh K3-EDTA plasma from three donors (not frozen), fresh plasma from three donors, day 0 (not frozen)
  fraction unbound at 8 h, 500 ng/mL: 0.00151 to 0.00335
[3]; plasma, human plasma, RED (abstract)
  fraction unbound at 8 h: 0.004
[3]; previously frozen K3-EDTA plasma (four freeze-thaw cycles), previously frozen plasma (four freeze-thaw cycles)
  fraction unbound at 8 h, 100 ng/mL: 0.00443
[3]; three donors, day 21 after storage at -80°C ±10°C
  fraction unbound at 8 h, 500 ng/mL: 0.00206 to 0.00319
[3]; three donors, day 30 after storage at -80°C ±10°C
  fraction unbound at 8 h, 500 ng/mL: 0.00168 to 0.00266
[3]; three donors, day 62 after storage at -80°C ±10°C
  fraction unbound at 8 h, 500 ng/mL: 0.00196 to 0.00286
[3]; three donors, day 91 after storage at -80°C ±10°C
  fraction unbound at 8 h, 500 ng/mL: 0.00159 to 0.00213
[4]
  plasma concentration in a treated patient sample: 177 ng/mL
